{"source": "patent US7935682B2", "about": "“Wound healing dressing for enhancing fibrocyte formation” (William Marsh Rice University, priority 2002, dated 2011)", "molecules": {"B1": {"name": "Protein S: purified human protein S, vitamin K-dependent anticoagulant (Calbiochem) (protein, UniProt P07225 42-676, looked up)", "Vitamin K-dependent protein S": "ANSLLEETKQGNLERECIEELCNKEEAREVFENDPETDYFYPKYLVCLRSFQTGLFTAARQSTNAYPDLRSCVNAIPDQCSPLPCNEDGYMSCKDGKASFTCTCKPGWQGEKCEFDINECKDPSNINGGCSQICDNTPGSYHCSCKNGFVMLSNKKDCKDVDECSLKPSICGTAVCKNIPGDFECECPEGYRYNLKSKSCEDIDECSENMCAQLCVNYPGGYTCYCDGKKGFKLAQDQKSCEVVSVCLPLNLDTKYELLYLAEQFAGVVLYLKFRLPEISRFSAEFDFRTYDSEGVILYAESIDHSAWLLIALRGGKIEVQLKNEHTSKITTGGDVINNGLWNMVSVEELEHSISIKIAKEAVMDINKPGPLFKPENGLLETKVYFAGFPRKVESELIKPINPRLDGCIRSWNLMKQGASGIKEIIQEKQNKHCLVTVEKGSYYPGSGIAQFHIDYNNVSSAEGWHVNVTLNIRPSTGTGVMLALVSGNNTVPFAVSLVDSTSEKSQDILLSVENTVIYRIQALSLCSDQQSHLEFRVNRNNLELSTPLKIETISHEDLQRQLAVLDKAMKAKVATYLGGLPDVPFSATPVNAFYNGCMEVNINGVQLDLDEAISKHNDIRAHSCPSVWKKTKNS"}, "B2": {"name": "IL-4: cytokine, activator of the fibrotic response (protein, UniProt P05112 25-153, looked up)", "Interleukin-4": "HKCDITLQEIIKTLNSLTEQKTLCTELTVTDIFAASKNTTEKETFCRAATVLRQFYSHHEKDTRCLGATAQQFHRHKQLIRFLKRLDRNLWGLAGLNSCPVKEANQSTLENFLERLKTIMREKYSKCSS"}, "B3": {"name": "CRP: purified human C-reactive protein (Calbiochem) (protein, UniProt P02741 19-224, looked up)", "C-reactive protein": "QTDMSRKAFVFPKESDTSYVSLKAPLTKPLKAFTVCLHFYTELSSTRGYSIFSYATKRQDNEILIFWSKDIGYSFTVGGSEILFEVPEVTVAPVHICTSWESASGIVEFWVDGKPRVRKSLKKGYTVGAEASIILGQEQDSFGGNFEGSQSLVGDIGNVNMWDFVLSPDEINTIYLGGPFSPNVLNWRALKYEVQGEVFTKPQLWP"}}, "tested_on": "monocyte to fibrocyte differentiation (PBMC)", "test": "Fibrocyte differentiation assay: PBMC cultured in serum-free medium, fibrocytes enumerated by morphology", "assay_type": "cell-based, human", "conditions": "for number of fibrocytes in culture: concentrations between 10 and 0.1 ng/ml; for number of fibrocytes in culture / ability to inhibit fibrocyte differentiation: PBMC in serum-free medium; for ability to inhibit fibrocyte differentiation: commercially available purified proteins, 6 days", "procedure": "The rapid appearance of these cells, within 3 days of culture, was inhibited by human serum or plasma. To examine this process in more detail, PBMC were cultured at 5×10^5 cells per ml in serum-free medium containing increasing concentrations of human plasma for 6 days. […] The activity in the serum that inhibited fibrocyte formation was retained by a 30 kDa cutoff spin-filter (data not shown).\nPlasma was fractionated by BaCl2 precipitation, heparin and ion exchange chromatography. Protein concentrations were assessed by spectrophotometry at 280 nm. Inhibition of fibrocyte differentiation was assessed by morphology. The fibrocyte inhibitory activity of a sample was defined as the reciprocal of the dilution at which it inhibited fibrocyte differentiation by 50%, when added to serum-free medium.\nSerum amyloid P is a constitutive plasma protein and is closely related to CRP, the major acute phase protein in humans. […] Serum and plasma contain between 30-50 μg/ml SAP.\nCells were incubated in serum-free medium: RPMI (GibcoBRL Life, Invitrogen, Carlsbad, Calif., USA) supplemented with 10 mM HEPES (GibcoBRL/Life), 2 mM glutamine, 100 U/ml penicillin and 100 μg/ml streptomycin, 0.2% bovine serum albumin (BSA, Sigma), 5 μg/ml insulin (Sigma), 5 μg/ml iron-saturated transferrin (Sigma) and 5 ng/ml sodium selenite (Sigma). Normal human serum (Sigma), normal human plasma (Gulf Coast Regional Blood Center) or fetal calf serum (Sigma), column fractions, sera and synovial fluid from patients or purified proteins were added at the stated concentrations. Patient samples were obtained from a repository available to researchers at University of Texas Medical School at Houston. This repository keeps patient information confidential, and meets all NIH guidelines.\nPBMC were cultured in 24 or 96 well tissue culture plates in 2 ml or 200 μl volumes respectively (Becton Dickinson, Franklin Lakes, N.J.) at 2.5×10^5 cells per ml in a humidified incubator containing 5% CO2 at 37° C. for the indicated times. Fibrocytes in 5 different 900 μm diameter fields of view were enumerated by morphology in viable cultures as adherent cells with an elongated spindle-shaped morphology as distinct from small lymphocytes or adherent monocytes. Alternatively cells were air dried, fixed in methanol and stained with haematoxylin and eosin (Hema 3 Stain, VWR, Houston, Tex.). Fibrocytes were counted using the above criterion and the presence of an oval nucleus. Enumeration of fibrocytes was performed on cells cultured for 6 days in flat-bottomed 96 well plates, with 2.5×10^4 cells per well. In addition, fibrocyte identity was confirmed by immunoperoxidase staining (see below). The fibrocyte inhibitory activity of a sample was defined as the reciprocal of the dilution at which it inhibited fibrocyte differentiation by 50%, when added to serum-free medium.\nExperiments have shown that IL-4 and IL-13 are capable of promoting fibrocyte differentiation in vitro. Specifically, PBMC were cultured in serum-free medium in the presence of IL-4 or IL-13. […] Therefore a bandage or other topical agarose formulation as described above additionally containing IL-4 and/or IL-13 is expected to show further improvements in wound healing.", "data": [{"molecule": "IL-13: cytokine, activator of the fibrotic response", "values": [{"measurement": "number of fibrocytes in culture", "result": "enhanced the number of fibrocytes"}]}, {"molecule": "SAP: commercially available purified human serum amyloid P (Calbiochem), a pentraxin plasma protein", "values": [{"measurement": "activity from dilution curve", "setting": "commercially available SAP", "result": "approximately 6.6×10^3 units/mg"}, {"measurement": "concentration of maximal inhibitory activity", "setting": "commercially available purified SAP", "result": 1, "unit": "µg/mL"}, {"measurement": "ability to inhibit fibrocyte differentiation", "result": "able to inhibit fibrocyte differentiation"}, {"measurement": "SAP concentration at the plasma dilution at which fibrocytes began to appear, comparable to the threshold concentration of purified SAP", "setting": "worked out from 0.5% plasma and 30-50 μg/ml SAP", "result": "0.15 to 0.25", "unit": "µg/mL"}]}, {"molecule": "B1", "values": [{"measurement": "ability to inhibit fibrocyte differentiation", "result": "only SAP was able to inhibit fibrocyte differentiation"}]}, {"molecule": "B2", "values": [{"measurement": "number of fibrocytes in culture", "result": "enhanced the number of fibrocytes"}]}, {"molecule": "B3", "values": [{"measurement": "ability to inhibit fibrocyte differentiation", "result": "only SAP was able to inhibit fibrocyte differentiation"}]}]}
